Among the data in publication PMC10463376, “Design, synthesis, in vitro anticancer, molecular docking and SAR studies of new series of pyrrolo[2,3-d]pyrimidine derivatives” (BMC Chemistry, 2023) are IC50 and cytotoxicity values, retold here.

≈ marks a conversion by molar mass, not a printed value.

In one data set the test system is MCF7 breast cancer cells. The data set is described as follows: MTT assay, MCF7. The note with it: for IC50 / cytotoxicity at 100 µg/mL: Homo sapiens, MCF7, 72 h; for IC50: read-out: IC50 MCF7. The text has this: (§1) All of the following steps were done in a sterile Laminar flow class II biosafety cabinet (Baker, SG406INT, Sanford, ME, USA). DMEM was used as a suspension medium for breast cancer (MCF7), colorectal cancer (HCT116), prostate cancer (PC3), liver cancer (HePG2), pancreatic cancer (PACA2) and lung cancer (A549), while normal cell line (BJ1) was suspended in DMEM-F12 medium. The selected cell lines were purchased from American Type Culture Collection (ATCC). The media were supplemented with a 1% antimycotic-antibiotic mixture (10,000 µg/ml streptomycin sulfate, 25 µg/ml Amphotericin B, and 10,000 U/ml Potassium Penicillin) and 1% L-glutamine. 10 × 10^4cells/well were seeded in 96 well microtiter plates and incubated for 24 h at 37 ℃ under 5% carbon dioxide using a water-jacketed Carbon dioxide incubator (Sheldon, SCO5A, OR, USA). […] After the incubation time of 72 h, the medium was removed. Afterward, 40 µl MTT salt ([…]) was added to each well and kept for 4 h under the same conditions of 37 °C and 5% carbon dioxide. Finally, 200 μl of 10% Sodium dodecyl sulfate (SDS) in deionized water was added to each well and incubated overnight at 37 °C. The step of SDS addition was done to stop the reaction and dissolve the formed formazan crystals. The absorbance was then measured at a wavelength of 595 nm and the reference wavelength was set at 620 nm using a microplate multi-well reader (Bio-Rad Laboratories Inc., model 3356, California, USA). […] A statistical significance analysis was determined between the samples and the negative control using an independent t-test by SPSS 11 program. Dimethyl sulfoxide (DMSO) was the vehicle that dissolved our synthesized compounds and its concentration in the cells was less than 0.2%. IC50 values were calculated using the GraphPad Prism 6 program. The degree of selectivity of the synthetic compounds was expressed as SI = IC50 of a pure compound in a normal cell line/IC50 of the same pure compound in the cancer cell line, where IC50 is the concentration of the compound required to kill 50% of the cells.

The next data set deals with A549 lung cancer cells. The data set is described as follows: MTT assay, A549. The conditions noted are these: for cytotoxicity at 100 µg/mL: read-out: MTT cell proliferation mortality assay (%) A549, at 100 μg/ml, 72 h.
Text: as §1

For data set [1], the system named is HCT116 colorectal cancer cells. The data set is described as follows: MTT assay, HCT116. The note with it: Homo sapiens, HCT-116, 72 h, read-out: MTT cell proliferation mortality assay (%) HCT116, at 100 μg/ml, 72 h.
Text: as §1

For data set [2], the system named is PC3 prostate cancer cells. The data set is described as follows: MTT assay, PC3. The conditions noted are these: Homo sapiens, 72 h, read-out: MTT cell proliferation mortality assay (%) PC3, at 100 μg/ml, 72 h.
Text: as §1

A further data set has as its system HePG2 liver cancer cells. The data set is described as follows: MTT assay, HePG2. The note with it: Homo sapiens, HepG2, 72 h; for cytotoxicity at 100 µg/mL: read-out: MTT cell proliferation mortality assay (%) HePG2; for IC50: read-out: IC50 HePG2.
Text: as §1

Data set [3] deals with PACA2 pancreatic cancer cells. The data set is described as follows: MTT assay, PACA2. The note with it: Homo sapiens, PaCa-2, 72 h; for cytotoxicity at 100 µg/mL: read-out: MTT cell proliferation mortality assay (%) PACA2.
Text: as §1

Data set [4] is described as follows: MTT assay, normal cell line BJ1. The note with it: human, at 100 μg/ml, read-out: MTT cell proliferation mortality assay (%) BJ1. The format is cell-based.
Text: as §1

Setting [5] is: read-out: MTT cell proliferation mortality assay (%) MCF7.

On to `S=c1[nH]cnc2c1c(-c1ccc(Br)cc1)c(Cl)n2-c1ccc(Cl)cc1Cl` [Compound 12, 5-(4-bromophenyl)-6-chloro-7-(2,4-dichlorophenyl)-3,7-dihydro-4H-pyrrolo[2,3-d]pyrimidine-4-thione], for which the IC50 with MCF7 breast cancer cells worked out at 11.9 ± 0.9 µg/mL (≈ 24.5 µM); in data set [3] (read-out: IC50 PACA2), 59.7 ± 0.7 µg/mL (≈ 123 µM). In addition, the cytotoxicity at 100 µg/mL in the data set on MCF7 breast cancer cells (setting [5]) amounted to 100%; in the data set with A549 lung cancer cells (Homo sapiens, A549, 72 h), 71.3 ± 1.6%; in data set [1] it was 64.3 ± 1.1%; in data set [2], 3.1 ± 0.2%; with HePG2 liver cancer cells, 26.3 ± 3.4%; in data set [3], 81.5 ± 1.2%. In addition, the cytotoxicity at 72 h, 100 μg/ml in data set [4] is 100%.

In the case of `CSc1ncnc2c1c(-c1ccc(Br)cc1)c(Cl)n2-c1ccc(Cl)cc1Cl` [Compound 13, 5-(4-bromophenyl)-6-chloro-7-(2,4-dichlorophenyl)-4-(methylthio)-7H-pyrrolo[2,3-d]pyrimidine], the cytotoxicity at 100 µg/mL with MCF7 breast cancer cells (setting [5]) amounted to 3.5 ± 0.6%; in the data set with A549 lung cancer cells (Homo sapiens, A549, 72 h) it was 42.6 ± 1.2%; in data set [1], 60.2 ± 1%; in data set [2], 32.2 ± 1.7%; in the data set with HePG2 liver cancer cells it was 12.4 ± 1.9%; in data set [3], 58.8 ± 1.2%. Besides, in data set [4], the cytotoxicity at 72 h, 100 μg/ml came to 25.3 ± 0.4%.

In the case of `NNc1nc(C(Cl)(Cl)Cl)nc2c1c(-c1ccc(Br)cc1)c(Cl)n2-c1ccc(Cl)cc1Cl` [Compound 15, 5-(4-bromophenyl)-6-chloro-7-(2,4-dichlorophenyl)-4-hydrazineyl-2-(trichloromethyl)-7H-pyrrolo[2,3-d]pyrimidine], the IC50 in the data set on MCF7 breast cancer cells turned out to be 42.8 ± 0.6 µg/mL (≈ 71.2 µM); in the data set with A549 lung cancer cells (Homo sapiens, A549, 72 h, read-out: IC50 A549), 54 ± 1.7 µg/mL (≈ 89.9 µM); with HePG2 liver cancer cells, 29.1 ± 0.5 µg/mL (≈ 48.4 µM). In addition, the cytotoxicity at 100 µg/mL with MCF7 breast cancer cells (setting [5]) was 81.2 ± 0.8%; in the data set with A549 lung cancer cells (Homo sapiens, A549, 72 h), 80 to 90%; in data set [1], 100%; in data set [2], 65.9 ± 2.4%; with HePG2 liver cancer cells, 100%; in data set [3], 100%. The cytotoxicity with MCF7 breast cancer cells (read-out: MTT cell proliferation mortality assay (%) MCF7, at 100 μg/ml, 72 h) was 80 to 95%; with A549 lung cancer cells (read-out: MTT cell proliferation mortality assay (%) A549, at 100 μg/ml, 72 h) it was 84.6 ± 0.4%. Also, the cytotoxicity at 72 h, 100 μg/ml in data set [4] came out at 4.5 ± 0.3%.

With `CN1CCN(c2ncnc3c2c(-c2ccc(Br)cc2)c(Cl)n3-c2ccc(Cl)cc2Cl)CC1` [Compound 16a, 5-(4-bromophenyl)-6-chloro-7-(2,4-dichlorophenyl)-4-(4-methylpiperazin-1-yl)-7H-pyrrolo[2,3-d]pyrimidine], the cytotoxicity at 100 µg/mL with MCF7 breast cancer cells (setting [5]) turned out to be 73.6 ± 2.2%; in the data set on A549 lung cancer cells (Homo sapiens, A549, 72 h), 3.2 ± 0.5%; in data set [1], 73.2 ± 0.8%; in data set [2] it was 3.8 ± 0.3%; in the data set on HePG2 liver cancer cells it was 100%; in data set [3] it was 7.5 ± 1.1%. Moreover, the cytotoxicity at 72 h, 100 μg/ml in data set [4] turned out to be 70.5 ± 0.4%.

Consider `Clc1ccc(-n2c(Cl)c(-c3ccc(Br)cc3)c3c(N4CCOCC4)ncnc32)c(Cl)c1` [Compound 18a, 4-(5-(4-bromophenyl)-6-chloro-7-(2,4-dichlorophenyl)-7H-pyrrolo[2,3-d]pyrimidin-4-yl)morpholine], for which the cytotoxicity at 100 µg/mL is 41.2 ± 1.5% in the data set with MCF7 breast cancer cells (setting [5]); 22.7 ± 0.9% with A549 lung cancer cells (Homo sapiens, A549, 72 h); 54.2 ± 1.2% in data set [1]; 2.1 ± 0.6% in data set [2]; 16.4 ± 1.6% in the data set on HePG2 liver cancer cells; 31 ± 1.3% in data set [3]. Moreover, in data set [4], the cytotoxicity at 72 h, 100 μg/ml came to 3.2 ± 1.5%.

Regarding `Clc1ccc(-n2c(Cl)c(-c3ccc(Br)cc3)c3c(N4CCOCC4)nc(C(Cl)(Cl)Cl)nc32)c(Cl)c1` [Compound 19, 4-(5-(4-bromophenyl)-6-chloro-7-(2,4-dichlorophenyl)-2-(trichloromethyl)-7H-pyrrolo[2,3-d]pyrimidin-4-yl)morpholine], the cytotoxicity at 100 µg/mL with MCF7 breast cancer cells (setting [5]) stood at 62.3 ± 3.4%; with A549 lung cancer cells (Homo sapiens, A549, 72 h), 5.6 ± 0.7%; in data set [1], 35.9 ± 1.5%; in data set [2], 3.7 ± 1.1%; in the data set on HePG2 liver cancer cells, 100%; in data set [3], 31.2 ± 5.1%. Besides, the IC50 in the data set with HePG2 liver cancer cells amounted to 19.4 ± 0.8 µg/mL (≈ 29.6 µM). For the same compound, the cytotoxicity at 72 h, 100 μg/ml in data set [4] was 52.7 ± 1.4%.
